Reference: patent publication US7098219B2, “Inhibitors of cellular efflux pumps of microbes” (Wockhart Limited, priority 2000, dated 2006)

Tested on: Staphylococcus aureus 1199 B NorA+
Assay type: cell-based
Conditions: combination with ciprofloxacin, broth microdilution checkerboard, 35° C. 20 hours; FIC index ≦0.5 synergistic, 0.5–2.0 additive, >2.0 antagonistic
Source text: Testing method for inhibition of the efflux pump of Staphylococcus aureus 1199B NorA^+
[…]. Victor Lorian, Md., Fourth edition 1996, pp 333–338).
In short, the assay involves broth microdilution method performed as recommended by the National Committee for Clinical Laboratory Standards (NCCLS) 1997 (Methods for Dilution of Antimicrobial Susceptibility Tests for Bacteria that Grow Aerobically, Fourth edition; Approved Standard, NCCLS document M7-A4, vol. 17, No. 2). The test organism used for the assay is Staphylococcus aureus 1199 B NorA^+.
[…]. Stock solutions of the efflux pump inhibitors tested are prepared in dimethyl sulfoxide (DMSO) at a final concentration of 5 mg/ml. Stock solutions are further diluted in Mueller Hinton Broth as per the need of the assay. Ciprofloxacin is dissolved in water.
The checkerboard assay is performed in microtiter plates. […] The efflux pump inhibitor is diluted in the Y-axis, each row containing an equal concentration of efflux pump inhibitor. The result of these manipulations is that each well of the microtiter plate contains a unique combination of concentrations of the two agents. Bacterial inoculum is added at 5×10^5 CFU/ml. Microtiter plates are incubated at 35° C. for 20 hours. Reading is done by visibly noting turbidity and confirmed using a microtiter plate reader (Molecular Devices). The FIC index is calculated as
(A) is the concentration of the experimental efflux pump inhibitor in the well that is the lowest inhibitory concentration in the Y-axis. (MICA) is the MIC of Staphylococcus aureus to experimental efflux pump inhibitor alone. FICA is the fractional inhibitory concentration of an experimental efflux pump inhibitor. […] (Antimicrobial Combination In Antibiotics in Laboratory Medicine, Ed. Victor Lorian, Md., Fourth edition 1996, pp 333–338).

Compound: CCNC1CCN(c2cc3c(cc2F)c(=O)c(C(=O)O)cn3-c2ccc(F)cc2)CC1 [Example 44 (NorA)]
- FIC INDEX: 0.189

Compound: C[C@H](N)C(=O)N[C@@H](C)C(=O)NC1CCN(c2c(F)c(N)c3c(=O)c(C(=O)O)cn(C4CC4)c3c2F)C1 (stereo partly drawn) [Example 27 (NorA), 5-Amino-1-cyclopropyl-6,8-difluoro-1,4-dihydro-7-{3′-(L-Ala-L-Alaamino)pyrrolidin-1-yl}-4-oxo-quinoline-3-carboxylic acid]
- FIC INDEX: 0.128

Compound: CC1COCC(C)N1c1c(F)c(N)c2c(=O)c(C(=O)O)cn(-c3ccccc3C(F)(F)F)c2c1F (centres unmarked) [Example 41 (NorA), 5-Amino-1-(2′-trifluoromethylphenyl)-6,8-difluoro-1,4-dihydro-7-(3′,5′-dimethylmorpholin-1-yl)-4-oxo-quinoline-3-carboxylic acid]
- FIC INDEX: 0.384

Compound: CCOC(=O)c1cn(-c2ccc(F)cc2F)c2nc(NC3C4CN(Cc5ccccc5)CC43)c(F)cc2c1=O (centres unmarked) [Example 51 (NorA), Ethyl-1-(2′,4′-difluorophenyl)-6-fluoro-1,4-dihydro-7-{[1∝,5∝,6∝]-3-N-benzyl-3-azabicyclo[3.1.01]hex-6-yl-amino}-4-oxo-1,8-naphthyridine-3-carboxylate]
- FIC INDEX: 0.185

Compound: COc1c(N2CCNC(C)C2)c(F)cc2c(=O)c(C(=O)O)cn(C3CC3)c12 (centres unmarked) [Example 23 (NorA), 1-Cyclopropyl-6-fluoro-8-methoxy-1,4-dihydro-7-(3′-methylpiperazin-1-yl)-4-oxo-quinoline-3-carboxylic acid]
- FIC INDEX: 0.314

Compound: CC1COCC(C)N1c1c(F)c(N)c2c(=O)c(C(=O)O)cn(C3CC3)c2c1F (centres unmarked) [Example 35 (NorA), 5-Amino-1-cyclopropyl-6,8-difluoro-1,4-dihydro-7-(3′,5′-dimethylmorpholin-1-yl)-4-oxo-quinoline-3-carboxylic acid]
- FIC INDEX: 0.314

Compound: O=C(O)c1cn(C2CC2)c2nc(NC3CCN(c4nc5c(cc4F)c(=O)c(C(=O)O)cn5C4CC4)C3)c(F)cc2c1=O (centres unmarked) [Bis compound 2]
- FIC INDEX: 0.282

Compound: O=C(O)c1cn(-c2ccc(F)cc2F)c2nc(N3CCN(c4cc5c(cc4F)c(=O)c(C(=O)O)cn5C4CC4)CC3)c(F)cc2c1=O [Bis compound 8, N-1-{7-(1-(2,4-difluorophenyl)-6-fluoro-1,4-dihydro-4-oxo-1,8-naphthyridine-3-carboxylic acid)}-N-4-{7-(1-cyclopropyl-6-fluoro-1,4-dihydro-4-oxo-quinoline-3-carboxylic acid)}-piperazine]
- FIC INDEX: 0.192

Compound: CN(C)C1CCN(c2cc3c(cc2F)c(=O)c(C(=O)O)cn3C2CC2)CC1 [Example 12 (NorA), 1-Cyclopropyl-6-fluoro-1,4-dihydro-7-(4′-(N-dimethylamino)piperidin-1-yl)-4-oxo-quinoline-3-carboxylic acid]
- FIC INDEX: 0.188

Compound: CC1CN(c2cc3c(cc2F)c(=O)c(C(=O)O)cn3C2CC2)CC(C)C1O (centres unmarked) [Example 14 (NorA), 1-Cyclopropyl-6-fluoro-1,4-dihydro-7-(4′-hydroxy-3′,5′-dimethylpiperidin-1-yl)-4-oxo-quinoline-3-carboxylic acid]
- FIC INDEX: 0.314

Compound: CCn1cc(C(=O)O)c(=O)c2cc(F)c(N3CCN(CCN4CCOC4=O)CC3)c(F)c21 [Example 3 (NorA), 1-Ethyl-6,8-fluoro-1,4-dihydro-7-(4′-{2′-(2′-oxazolidin-1yl)ethyl}piperazin-1-yl)-4-oxo-quinoline-3-carboxylic acid]
- FIC INDEX: 0.188

Compound: CC1CN(c2c(F)c(N)c3c(=O)c(C(=O)O)cn(C4CC4)c3c2F)CC(C)N1C(=O)C(C)(C)C (centres unmarked) [Example 37 (NorA), 5-Amino-1-cyclopropyl-6,8-difluoro-1,4-dihydro-7-(3′,5′-dimethyl-4-pivaloylpiperazin-1-yl)-4-oxo-quinoline-3-carboxylic acid]
- FIC INDEX: 0.314

Compound: CCn1cc(C(=O)O)c(=O)c2cc(F)c(N3CCC(OC(C)=O)CC3)c(F)c21 [Example 2 (NorA), 1-Ethyl-6,8-fluoro-1,4-dihydro-7-(4′-acetoxypiperidin-1-yl)-4-oxo-quinoline-3-carboxylic acid]
- FIC INDEX: 0.314

Compound: CCn1cc(C(=O)O)c(=O)c2c(N)c(F)c(N3CCC(NC(C)=O)CC3)c(F)c21 [Example 7 (NorA), 5-Amino-1-ethyl-6,8-difluoro-1,4-dihydro-7-{4′-(acetamido)piperidin-1-yl}-4-oxo-quinoline-3-carboxylic acid]
- FIC INDEX: 0.312

Compound: N-3-azabycyclo{7-(1-(2,4-difluorophenyl)-6-fluoro-1,4-dihydro-4-oxo-1,8-naphthyridine-3-carboxylic acid)}-[1∝,5∝,6∝]-N-6-amino-{7-1-(2,4-difluorophenyl)-6-fluoro-1,4-dihydro-4-oxo-1,8-naphthyridine-3-carboxylic acid)}-3.1.0]hexane [Bis compound 9]
- FIC INDEX: 0.314

Compound: CCOC1CCN(c2cc3c(c(C)c2F)c(=O)c(C(=O)O)cn3C2CC2)CC1 [Example 17 (NorA), 1-Cyclopropyl-6-fluoro-1,4-dihydro-5-methyl-7-(4′-ethoxypiperidin-1-yl)-4-oxo-quinoline-3-carboxylic acid]
- FIC INDEX: 0.378

Compound: Nc1c(F)c(N2CCN(c3nc4c(cc3F)c(=O)c(C(=O)O)cn4C3CC3)CC2)c(F)c2c1c(=O)c(C(=O)O)cn2C1CC1 [Bis compound 4, N-1-{7-(1-cyclopropyl-6-fluoro-1,4-dihydro-4-oxo-1,8-naphthyridine-3-carboxylic acid)}-N-4-{7-(1-cyclopropyl-6,8-difluoro-5-amino-1,4-dihydro-4-oxo-quinoline-3-carboxylic acid)}-piperazine]
- FIC INDEX: 0.282

Compound: CN(c1c(F)c(N)c2c(=O)c(C(=O)O)cn(C3CC3)c2c1F)C1CC(C)(C)N(C)C(C)(C)C1 [Example 34 (NorA)]
- FIC INDEX: 0.282

Compound: CC1CC(N)CN1c1cc2c(cc1F)c(=O)c(C(=O)O)cn2C1CC1 (centres unmarked) [Example 10 (NorA), 1-Cyclopropyl-6-fluoro-1,4-dihydro-7-(3′-amino-5′-methylpyrrolidin-1-yl)-4-oxo-quinoline-3-carboxylic acid]
- FIC INDEX: 0.314

Compound: C[C@H]1CCc2c(N3CCC(O)C(C)(C)C3)c(F)cc3c(=O)c(C(=O)O)cn1c23 (stereo partly drawn) [Example 55 (NorA), S-(−)-9-Fluoro-6,7-dihydro-8-(4′-hydroxy-3′,3′-dimethylpiperidin-1-yl)-5-methyl-1-oxo-1H,5H-benzo[i,j]quinolizine-2-carboxylic acid]
- FIC INDEX: 0.378

Compound: CN1CCN(c2cc3c(cc2F)c(=O)c(C(=O)O)cn3-c2ccccc2C(F)(F)F)CC1(C)C [Example 39 (NorA), 1-(2′-Trifluoromethylphenyl)-6-fluoro-1,4-dihydro- -7-(3′,3′,4′-trimethylpiperazin-1-yl)-4-oxo-quinoline-3-carboxylic acid]
- FIC INDEX: 0.282

Compound: O=C(O)c1cn(-c2ccc(F)cc2F)c2nc(NC3CCN(c4cc5c(cc4F)c(=O)c(C(=O)O)cn5C4CC4)C3)c(F)cc2c1=O (centres unmarked) [Bis compound 1, N-1-{7-(1-cyclopropyl-6-fluoro-1,4-dihydro-4-oxo-quinoline-3-carboxylic acid)}-N-3-amino-{7-(1-(2,4-difluorophenyl)-6-fluoro-1,4-dihydro-4-oxo-1,8-naphthyridine-3-carboxylic acid)}-pyrrolidine]
- FIC INDEX: 0.253

Compound: CC1CC(O)CN1c1c(F)c(N)c2c(=O)c(C(=O)O)cn(-c3ccc(F)cc3F)c2c1F (centres unmarked) [Example 46 (NorA), 5-Amino-1-(2′,4′-difluorophenyl)-6,8-difluoro-1,4-dihydro-7-(3′-hydroxy-5′-methylpyrrolidin-1-yl)-4-oxo-quinoline-3-carboxylic acid]
- FIC INDEX: 0.314

Compound: Cc1c(F)c(N2CCC(Nc3c(F)c(N)c4c(=O)c(C(=O)O)cn(C5CC5)c4c3F)C2)cc2c1c(=O)c(C(=O)O)cn2C1CC1 (centres unmarked) [Bis compound 7, N-1-{7-(1-cyclopropyl-6-fluoro-5-methyl-1,4-dihydro-4-oxo-quinolone-3-carboxylic acid)}-N-3-amino{7-(1-cyclopropyl-6,8-difluoro-5-amino-1,4-dihydro-4-oxo-quinoline-3-carboxylic acid)}-pyrrolidine]
- FIC INDEX: 0.304

Compound: CC1(C)CN(c2c(F)c(N)c3c(=O)c(C(=O)O)cn(C4CC4)c3c2F)CCC1O (centres unmarked) [Example 31 (NorA), 5-Amino-1-cyclopropyl-6,8-difluoro-1,4-dihydro-7-(4′-hydroxy-3′,3′-dimethyl-piperidin-1-yl)-4-oxo-quinoline-3-carboxylic acid]
- FIC INDEX: 0.304

Compound: CC1CCC(N)N1c1c(F)c(N)c2c(=O)c(C(=O)O)cn(C3CC3)c2c1F (centres unmarked) [Example 26 (NorA), 5-Amino-1-cyclopropyl-6,8-difluoro-1,4-dihydro-7-(5′-amino-2′-methyl-pyrrolidin-1-yl)-4-oxo-quinoline-3-carboxylic acid]
- FIC INDEX: 0.628
